Experimental data taken from patent US20240299388A1, “ERK1/2 AND SHP2 INHIBITORS COMBINATION THERAPY” (Erasca, Inc., priority 2021, published 2024).

How the values were obtained:
[1] = test system: KRAS G12A NSCLC CDX model NCI-H2009; assay: In vivo CDX xenograft efficacy, NCI-H2009; set-up: species or system Balb/c nude mice; conditions: oral
Procedure: (§1) The vehicle/control article, 0.5% Methyl Cellulose & 0.1% Tween 80 or 100 mM acetic acid in deionized water with pH adjustment to 4.8-5.0, was prepared and stored under ambient conditions throughout the study period.
(§2) The test article, compound 1, was freshly prepared in vehicle of 0.5% Methyl Cellulose & 0.1% Tween 80 weekly and stored under ambient conditions. The combination agent, compound 2, was freshly prepared in vehicle of 100 mM acetic buffer weekly and stored under ambient conditions.
(§3) Female Balb/c nude mice were purchased from the Beijing Vital River Laboratory Animal Technology Co., Ltd. Mice were hosted at special pathogen-free (SPF) environment of vivarium facility and acclimated to their new environment for at least 3 days prior to initiation of any experiments. Mice were between 6-8 weeks of age at the time of implantation.
(§4) NCI-H2009 is a human NSCLC cell line that harbored a KRAS^G12A mutation. The NCI-H2009 cell line was purchased from the American Type Culture Collection (ATCC® CRL-5911). NCI-H2009 cells were cultured in medium containing RPMI-1640 plus 10% Fetal Bovine Serum (FBS) and supplemented with Glutamax and pyruvate at 37° C. in an atmosphere of 5% CO2 in air. NCI-H2009 cells in 100 μL cell suspensions containing 5×10^6 cells mixed with 50% Matrigel were implanted into mice subcutaneously. When tumor volumes reached a mean of 200 mm^3, tumor-bearing mice were randomized into different groups with 8 mice in each group and treatment started on the day of randomization.
(§5) Mice were dosed by oral administration of vehicle control solution, compound 1, or compound 2 in monotherapy treatment groups. Mice were dosed by oral administration of combinations, including compound 1 with compound 2. The dosing volume was 5 mL/kg for each compound and interval of BID regimen was 8 hours. In the combination of compound 1 with compound 2, compound 1 was dosed at one-hour post compound 2 QD or first BID dose. […] The study was terminated at the end of 4-week treatment or when tumor volume in vehicle control group reached 2,000 mm^3.

[2] = test system: KRAS G12V NSCLC CDX model NCI-H441; assay: In vivo CDX xenograft efficacy, NCI-H441; set-up: species or system Balb/c nude mice; conditions: oral
Procedure: as §1, §2, §3
as §4, with “NCI-H441” for “NCI-H2009”, “harbors” for “harbored”, “KRAS^G12V” for “KRAS^G12A”, “HTB-174™). NCI-H441” for “CRL-5911). NCI-H2009”, “(FBS),” for “(FBS) and supplemented with Glutamax and pyruvate”, “200” for “100”
as §5

SMILES | TGI ([1]; monotherapy 30 mg/kg BID) | TGI ([2]; monotherapy 30 mg/kg BID) | TGI ([2]; monotherapy 30 mg/kg QD) | TGI ([1]; monotherapy 15 mg/kg QD) | TGI ([1]; monotherapy 30 mg/kg QD) | TGI ([2]; monotherapy 15 mg/kg QD)
Cc1cnc(NC2CCOCC2)nc1-n1cnc(C(=O)N[C@H](CN)c2cc(F)cc(Cl)c2)c1 [Compound 1, (S)—N-(2-amino-1-(3-chloro-5-fluorophenyl)ethyl)-1-(5-methyl-2-((tetrahydro-2H-pyran-4-yl)amino)pyrimidin-4-yl)-1H-imidazole-4-carboxamide] | 93% | 115% | 94% |  |  | 
COCOC[C@H]1C[C@H]2COc3c(Sc4cnc(N5CCC6(CC5)CO[C@@H](C)[C@H]6N)c(CO)n4)ccnc3N2C1 [Compound 2, (3-((3S,4S)-4-amino-3-methyl-2-oxa-8-azaspiro[4.5]decan-8-yl)-6-(((6aS,8S)-8-((methoxymethoxy)methyl)-6a,7,8,9-tetrahydro-6H-pyrido[3,2-b]pyrrolo[1,2-d][1,4]oxazin-4-yl)thio)pyrazin-2-yl)methanol] |  |  | 101% | 73% | 90% | 87%
